In ChEMBL document CHEMBL4414637, “Resorcinosides A and B, Glycosylated Alkylresorcinols from a Marine-Derived Strain of the Fungus Penicillium janthinellum” (2019):
Structures can show the parent of a compound that is named as a salt.

Columns and labels:
Type in all cases: functional
HCT-15 = test: Cytotoxicity against human HCT15 cells assessed as cell growth inhibition measured after 48 hrs by SRB assay; conditions: HCT-15, 48 h
NUGC-3 = test: Cytotoxicity against human NUGC3 cells assessed as cell growth inhibition measured after 48 hrs by SRB assay; conditions: NUGC-3, 48 h
NCI-H23 = test: Cytotoxicity against human NCI-H23 cells assessed as cell growth inhibition measured after 48 hrs by SRB assay; conditions: NCI-H23, 48 h
ACHN = test: Cytotoxicity against human ACHN cells assessed as cell growth inhibition measured after 48 hrs by SRB assay
PC-3 = test: Cytotoxicity against human PC3 cells assessed as cell growth inhibition measured after 48 hrs by SRB assay; conditions: PC-3, 48 h
MDA-MB-231 = test: Cytotoxicity against human MDA-MB-231 cells assessed as cell growth inhibition measured after 48 hrs by SRB assay; conditions: MDA-MB-231, 48 h

| SMILES | GI50 (HCT-15) | GI50 (NUGC-3) | GI50 (NCI-H23) | GI50 (ACHN) | GI50 (PC-3) | GI50 (MDA-MB-231) |
| --- | --- | --- | --- | --- | --- | --- |
| CC[C@H](C)[C@@H](CCCCCCC/C=C/C=C/CCc1cc(O)cc(O)c1)O[C@H]1O[C@H](CO)[C@@H](O)[C@H](O)[C@H]1O | 19 µM | 9.3 µM | 24 µM | 31 µM | 21 µM | 25 µM |
| COc1cccc2c1C(=O)c1c(O)c3c(c(O)c1C2=O)C[C@@](O)(C(=O)CO)C[C@@H]3O[C@H]1C[C@H](N)[C@H](O)[C@H](C)O1 [DOXORUBICIN HYDROCHLORIDE] | 0.14 µM | 0.15 µM | 0.14 µM | 0.13 µM | 0.14 µM | 0.15 µM |
| CC[C@H](C)[C@@H](CCCCCCC/C=C/C=C/CCc1cc(O)cc(O)c1Cc1c(O)cc(C)oc1=O)O[C@H]1O[C@H](CO)[C@@H](O)[C@H](O)[C@H]1O | > 50 µM | > 50 µM | > 50 µM | > 50 µM | > 50 µM | > 50 µM |
